Tests used:
GNE Myopathy myotubes [1] = experiment: Intracellular ROS (DCF fluorescence) in cultured myotubes; format: cell-based, mice; settings: GNE Myopathy myotubes treated with 5 mM for 72 h; mean±SEM; untreated 1113±30, littermate controls 115±15
Method: (§1) Cell cultures and myotubes analysis: Myocytes from Gne^−/−hGNED176V-Tg mice and littermate controls were proliferated in DMEM containing 20% fetal bovine serum and 1% chicken embryo extracts in a 5% CO2 and induced to differentiation in a serum free medium, OPTIPRO™ SFM (Gibco), to make the cells hyposialylated. Where indicated, myotubes were treated with 5 mM NeuAc (Japan Food and Liquor Alliance) or 5 mM NAC (Sigma) for 72 h.
For the analysis of intracellular ROS, a popular fluorescence-based probe, 2′,7′-dichlorodihydrofluorescein diacetate (DCFH-DA) (Wang et al., Free Radical Biology and Medicine. 1999; 27:612-616; Halliwell and Whiteman, Br J Pharmacol. 2004; 142:231-255) was used. Cells were loaded with 5 μM DCFH-DA (Invitrogen) in PBS for an hour and recovered with phenol red-free DMEM (Gibco) for 30 min at 37° C. in a 5% CO2 incubator. Then the cells were placed in a CYTOFLUOR® Series 4000 multi-well fluorescence plate reader (PerSeptive Biosystems) with temperature maintained at 37° C. The excitation filter was set at 485 nm and the emission filter was set at 530 nm. The fluorescence from each well was captured and recorded.

GNE Myopathy myotubes [2] = experiment: ROS generation under pro-oxidants (H2O2 or menadione), ΔDCF fluorescence; format: cell-based, mice
Method: as §1
To evaluate the ROS generation under pro-oxidants, myotubes cultured in each condition were loaded with 5 μM DCFH-DA for 1 h and recovered in the different concentrations of H2O2 or menadione-containing medium. After 30 min incubation in dark at 37° C., the microplate containing cells with pro-oxidants were placed in a plate reader and fluorescence was captured at every 5 min until it reached a plateau. Maximum fluorescence of each well was used for analysis.

GNE Myopathy myotubes [3] = experiment: Cell viability assay under pro-oxidants (propidium iodide/Hoechst co-staining); format: cell-based, mice; settings: treated GNE Myopathy myotubes under menadione exposure
Method: as §1
For the cell viability assay, myotubes were exposed to H2O2 for 24 h and to menadione for 6 h before staining. Nuclear staining with Hoechst 33342 (Thermo Scientific) and propidium iodide (PI) (Dojindo) was used for morphological assessment of apoptosis by fluorescence microscopy (Lee and Shacter, Journal of Biological Chemistry. 1999; 274:19792-19798). Minimum 200 nuclei were counted and cell viability was calculated by the exclusion of PI-stained nuclei from Hoechst 33342-stained nuclei.

Gne−/−hGNED176V-Tg mice = experiment: Muscle contractile properties analysis (gastrocnemius); format: in vivo; settings: for Peak isometric twitch force (Pt) / Maximum tetanic force (Po): gastrocnemius; for Peak isometric twitch force (Pt): untreated 167.1±6.0; for Maximum tetanic force (Po): untreated 526.7±24.1; for Specific isometric force (Pt/CSA): untreated 16.3±2.6; for Specific tetanic force (Po/CSA): untreated 51.4±8.9
Method: N-Acetylcysteine (NAC) Treatment Protocols: […] were randomly divided into high dose NAC (n=13), low dose NAC (n=13), or untreated control (n=17) groups. […] There was no difference in water consumption between mice receiving NAC supplemented water or regular drinking water. […] Three littermates groups (high dose NAC; n=7, low dose NAC; n=7, or untreated control; n=6) were treated in the same way. Muscle contractile properties analysis: The contractile properties of the gastrocnemius and tibialis anterior muscles were measured according to previous protocol ([…] et al., Nat Med. 2009; 15:690-695; […] et al., Physiol Genomics. 2008; 35:106-115). After the mouse was anesthetized with intraperitoneal sodium pentobarbital (50 mg per kg body weight), the entire skeletal muscles were isolated along with the proximal bone of origin intact. Then the muscle was mounted in a vertical chamber and connected to a force-displacement and length servo system. […] With the muscle held at L0 and duration changed to 3 ms, the force developed during trains of stimulation pulses (10 to 100 Hz) was recorded and the maximum absolute tetanic force (Po) was determined. Absolute force was normalized with the physiologic cross-sectional area (CSA; muscle weight divided by the product of L0 and 1.066 g/cm^3) to obtain specific force (Pt/CSA and Po/CSA).

β-amyloid = β-amyloid expression by ELISA in muscle homogenates; format: in vivo, mice; settings: after NAC treatment
[4] = Safety of long term NAC treatment (side effects, serum chemistry); format: in vivo, mice
Description: N-Acetylcysteine (NAC) Treatment Protocols: Gne^−/−hGNED176V-Tg mice were randomly divided into high dose NAC (n=13), low dose NAC (n=13), or untreated control (n=17) groups. For NAC (Sigma) treatment, mice were provided ad libitum access to drinking water containing high dose NAC (1.0% w/v) or low dose NAC (0.1% w/v), which gives an average dose of 1.5 g/kg for high dose group and of 0.15 g/kg for low dose group per day. There was no difference in water consumption between mice receiving NAC supplemented water or regular drinking water. Treatment was initiated from the average age of 26 weeks until the mice reached at least 55 weeks. Three littermates groups (high dose NAC; n=7, low dose NAC; n=7, or untreated control; n=6) were treated in the same way.

## CC(=O)N[C@@H](CS)C(=O)O [NAC, N-acetylcysteine]
GNE Myopathy myotubes [1]
  Mean DCF fluorescence (intracellular ROS generation): 191±10 AFU
GNE Myopathy myotubes [2]; GNE Myopathy myotubes, H2O2 or menadione, more evident for menadione
  Protective effect in the high oxidative stress condition: worked effectively
GNE Myopathy myotubes [2]; treated GNE Myopathy myotubes under menadione exposure
  ΔDCF fluorescence compared to littermate myotubes: comparable
GNE Myopathy myotubes [3]
  Cell viability compared to littermate myotubes: even better
Gne−/−hGNED176V-Tg mice; HD group 1.5 g/kg per day
  Peak isometric twitch force (Pt): 228.5±15.0 mN
  Maximum tetanic force (Po): 687.5±52.4 mN
  Specific isometric force (Pt/CSA): 22.5±5.1 mN/mm^2
  Specific tetanic force (Po/CSA): 67.5±15.7 mN/mm^2
Gne−/−hGNED176V-Tg mice; LD group 0.15 g/kg per day
  Peak isometric twitch force (Pt): 233.6±10.0 mN
  Maximum tetanic force (Po): 735.0±43.0 mN
  Specific isometric force (Pt/CSA): 23.4±3.3 mN/mm^2
  Specific tetanic force (Po/CSA): 73.5±13.5 mN/mm^2
Gne−/−hGNED176V-Tg mice; littermate control mice with NAC supplement
  Increase of absolute contractile forces (Pt and Po) in littermate mice: not statistically significant
β-amyloid
  β-amyloid expression by ELISA in muscle homogenates: decreased
[4]; long term treatment of mice
  Adverse side effects: No adverse side effects
[4]; treated vs untreated mice
  Alkaline phosphatase: no difference
  Blood urea nitrogen: no difference
  Serum aspartate aminotransferase: no difference
